Read-outs that look alike come from different tables or passages of the source.
Columns and labels:
[1] = test system: HIV-1 pseudovirus pseudotyped with HXB2 Env; assay: microbe, parasite or virus in culture; type: cell-based; settings: single cycle assay, TZM-bl cells infected with HIV-1 pseudovirus pseudotyped with HXB2 Env;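 further: endpoint is IC50 for inhibition of pseudovirus infection of TZM-bl cells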
[2] = Cytotoxicity in TZM-bl cells (XTT); type: cell-based; settings: human, XTT, 3 days
Experimental: (§1) The cytotoxicity of test compounds in TZM-bl cells was also measured by the XTT method described previously^7. […] The soluble intracellular formazan was quantitated colorimetrically at 450 nm 4 h later. The percent of cytotoxicity and the CC50 values were calculated as above. (See Table 4)

TZM-bl cells = assay: Cytotoxicity in TZM-bl cells (XTT); type: cell-based; settings: for CC50: XTT, 3 days
Experimental: as §1

[3] = test system: panel of HIV-1 ENV-pseudoviruses (subtype A, A/D, A2/D, A/E, A/G, B, C and D); assay: microbe, parasite or virus in culture; type: cell-based
HIV-1 Integrase = molecular target: T1, HIV-1 Integrase (Human immunodeficiency virus type 1 group M subtype B, UniProt P04585); assay: HIV-1 Integrase Assay (ExpressBio kit); type: biochemical
T1 construct: HIV-1 Integrase Assay Kit from ExpressBio; purchased ExpressBio (Thurnmont, Md.)
Experimental: HIV-1 Integrase was performed as per the protocol in the HIV-1 Integrase Assay Kit from ExpressBio (Thurnmont, Md.). (See Table 3)

[4] = Human immunodeficiency virus 1, HXB2, TZM-bl
[5] = Human immunodeficiency virus 1, TZM-bl, read-out: IC50 (μM) ± S.D., subtype A2/D, NIH # 11905, ENV QG393.60M.ENV.A1

Row | Compound | CC50 at 3 days [2] | IC50 [1] | further results
1 | Cc1ccc(-c2ccc(C(=O)NC(c3ncc(CO)s3)C(C)(C)N)[nH]2)cc1F (single isomer, unassigned) [Compound 125] | 32.5 ± 0.3 µM | – | IC50 [1, 4]: 0.63 ± 0.03 µM
2 | NCC(NC(=O)c1ccc(-c2cc(F)c(Cl)c(F)c2)[nH]1)c1ncc(CO)s1 (single isomer, unassigned) [Compound 120] | – | – | CC50 (TZM-bl cells): 31.4 ± 1.1 µM; IC50 [3, 5]: 1 ± 0.06 µM
3 | CNCCC(NC(=O)c1ccc(-c2ccc(C)c(F)c2)[nH]1)c1nc(C)c(CO)s1 (single isomer, unassigned) [Compound 78] | 36.4 ± 2.6 µM | 10.4 ± 0.2 µM | –
4 | CNCC(NC(=O)c1ccc(-c2ccc(Cl)c(F)c2)[nH]1)c1nc(C)c(CO)s1 (single isomer, unassigned) [Compound 56] | ~21 µM | 1.6 ± 0.6 µM | –
5 | Cc1nc(C(CCN(C)C)NC(=O)c2ccc(-c3ccc(Cl)c(F)c3)[nH]2)sc1CO (single isomer, unassigned) [Compound 74] | 22 ± 1 µM | 4.6 ± 0.2 µM | –
6 | Cc1nc(C(CN(C)C)NC(=O)c2ccc(-c3ccc(Cl)cc3)[nH]2)sc1CO (single isomer, unassigned) [Compound 62] | > 40 µM | – | IC50 [1, 4]: 22 ± 3.8 µM
7 | CC(C)(N)C(NC(=O)c1ccc(-c2ccc(Cl)c(F)c2)[nH]1)c1ncc(CO)s1 (single isomer, unassigned) [Compound 123] | 14.5 ± 2 µM | – | IC50 [1, 4]: 0.56 ± 0.03 µM
8 | CNCCC(NC(=O)c1ccc(-c2ccc(Cl)c(F)c2)[nH]1)c1nc(C)c(CO)s1 (single isomer, unassigned) [Compound 80] | 22.3 ± 0.6 µM | 9.1 ± 1.1 µM | –
9 | Cc1ccc(-c2ccc(C(=O)NC(CN(C)C)c3nc(C)c(CO)s3)[nH]2)cc1F (single isomer, unassigned) [Compound 64] | ~40 µM | ~40 µM | –
10 | Cc1nc(C(CCN)NC(=O)c2ccc(-c3ccc(Cl)cc3)[nH]2)sc1CO (single isomer, unassigned) [Compound 88] | 41 ± 1.1 µM | 18.7 ± 0.7 µM | –
11 | Cc1nc(C(CN)NC(=O)c2ccc(-c3ccc(Cl)c(F)c3)[nH]2)sc1CO (single isomer, unassigned) [Compound 41] | – | – | CC50 (TZM-bl cells): ≥ 33 µM; IC50 ([3]; Human immunodeficiency virus 1, TZM-bl, read-out: IC50 (μM) ± S.D., subtype C, NIH # 11312, ENV ZM249M.PL1): 1 µM; IC50 (HIV-1 Integrase): > 100 µM
12 | Cc1ccc(-c2ccc(C(=O)NC(c3nc(C)c(CO)s3)C(C)(C)N)[nH]2)cc1F (single isomer, unassigned) [Compound 113] | 17.1 ± 0.6 µM | 1.1 ± 0.1 µM | –
13 | COc1cc(C(=O)NC(CN)c2nc(C)c(CO)s2)[nH]c1-c1ccc(Cl)cc1 (single isomer, unassigned) [Compound 105] | 16.7 ± 0.1 µM | – | IC50 [1, 4]: 8.8 ± 0.5 µM
14 | Cc1nc(C(CN)NC(=O)c2ccc(-c3ccc(F)c(F)c3)[nH]2)sc1CO (single isomer, unassigned) [Compound 121] | > 51 µM | – | IC50 [1, 4]: 3.4 ± 0.7 µM; percentage in brackets after CC50 >51 (TZM-bl cells; printed "(30%)" without explanation, presumably toxicity at 51 μM): 30%
15 | Cc1ccc(-c2ccc(C(=O)NC(CCN)c3nc(C)c(CO)s3)[nH]2)cc1F (single isomer, unassigned) [Compound 84] | 47 ± 0.6 µM | 18.2 ± 2.6 µM | –
16 | Cc1nc(C(NC(=O)c2ccc(-c3ccc(Cl)c(F)c3)[nH]2)C(C)(C)N)sc1CO (single isomer, unassigned) [Compound 111] | 14 ± 0.4 µM | – | IC50 [1, 4]: 0.44 ± 0.03 µM
17 | NCC(NC(=O)c1ccc(-c2ccc(Cl)c(F)c2)[nH]1)c1ncc(CO)s1 (single isomer, unassigned) [Compound 101] | 30.8 ± 1.9 µM | 0.57 ± 0.01 µM | –
18 | COc1ccc(-c2ccc(C(=O)NC(CN)c3ncc(CO)s3)[nH]2)cc1OC (single isomer, unassigned) [Compound 129] | > 74.5 µM | – | IC50 [1, 4]: > 74.5 µM
19 | CNCC(NC(=O)c1ccc(-c2ccc(C)c(F)c2)[nH]1)c1ncc(CO)s1 (single isomer, unassigned) [Compound 118] | 21 ± 0.8 µM | 2 ± 0.3 µM | –

Row | Compound | CC50 at 3 days [2] | IC50 [1] | further results
20 | Cc1nc(C(NC(=O)c2ccc(-c3ccc(Cl)cc3)[nH]2)C2CCCCN2)sc1CO (single isomer, unassigned) [Compound 17] | – | – | IC50 [3, 5]: 0.41 ± 0.2 µM; IC50 (HIV-1 Integrase): > 100 µM
21 | Cc1nc(C(CN)NC(=O)c2ccc(-c3ccc(Cl)c(F)c3)[nH]2)sc1CO (single isomer, unassigned) [Compound 51] | ~28 µM | – | –
22 | Cc1ccc(-c2ccc(C(=O)NC(CN)c3nc(C)c(CO)s3)[nH]2)cc1F (single isomer, unassigned) [Compound 43] | ≥ 34 µM | – | –
23 | Cc1nc(C(CN(C)C)NC(=O)c2ccc(-c3ccc(Cl)c(F)c3)[nH]2)sc1CO (single isomer, unassigned) [Compound 67] | ~29 µM | – | –
24 | Cc1ccc(-c2ccc(C(=O)NC(c3nc(C)c(CO)s3)C3CCCCN3)[nH]2)cc1F (single isomer, unassigned) [Compound 22] | ≥ 36 µM | – | –
25 | N=C(N)NCCCC(NC(=O)c1ccc(-c2ccccc2)[nH]1)C(=O)NN1CCOCC1 (stereo not drawn) [Compound 10] | > 43 µM | – | –
26 | Cc1ccc(-c2ccc(C(=O)NC(CNC(=N)N)c3nc(C)c(CO)s3)[nH]2)cc1F (single isomer, unassigned) [Compound 49] | > 37 µM | – | –
27 | Cc1n[nH]c(C)c1CNC(=O)c1ccc(-c2ccc(Cl)cc2)[nH]1 [Compound 11] | ~60 µM | – | –
28 | CNCC(NC(=O)c1ccc(-c2ccc(Cl)cc2)[nH]1)c1nc(C)c(CO)s1 (single isomer, unassigned) [Compound 58] | ~37 µM | – | –
29 | Cc1ccc(-c2ccc(C(=O)NC(c3nc(C)c(CO)[nH]3)C3CCCCN3)[nH]2)cc1F (single isomer, unassigned) [Compound 37] | 30 ± 0.3 µM | – | –
30 | CNCCC(NC(=O)c1ccc(-c2ccc(Cl)cc2)[nH]1)c1nc(C)c(CO)s1 (single isomer, unassigned) [Compound 82] | 23 ± 1.2 µM | 18.6 ± 1.5 µM | –
31 | Cc1nc(C(CNC(=N)N)NC(=O)c2ccc(-c3ccc(Cl)cc3)[nH]2)sc1CO (single isomer, unassigned) [Compound 45] | > 37 µM | – | –
32 | NCC(NC(=O)c1ccc(-c2ccc(Cl)cc2)[nH]1)c1ncc(CO)s1 (single isomer, unassigned) [Compound 104] | 38 ± 1.5 µM | 1.3 ± 0.1 µM | –
33 | Cc1nc(C(NC(=O)c2ccc(-c3ccc(Cl)cc3)[nH]2)C(C)(C)N)sc1CO (single isomer, unassigned) [Compound 109] | 22.1 ± 1.8 µM | – | IC50 [1, 4]: 1.4 ± 0.5 µM
34 | Cc1nccn1Cc1ccc(CNC(=O)c2ccc(-c3ccc(Cl)cc3)[nH]2)o1 [Compound 12] | 22 ± 0.4 µM | – | –
35 | CS(=O)(=O)NCCNC(=O)C(CCCNC(=N)N)NC(=O)c1ccc(-c2ccccc2)[nH]1 (stereo not drawn) [Compound 7] | > 43 µM | – | –
36 | NCC(NC(=O)c1ccc(-c2ccc(Cl)c(F)c2)[nH]1)c1ncc(CO)s1 (single isomer, unassigned) [Compound 90] | – | – | CC50 (TZM-bl cells): 37.4 ± 0.3 µM; IC50 (HIV-1 Integrase): > 100 µM
37 | Cc1ccc(-c2ccc(C(=O)NC(CN)c3ncc(CO)s3)[nH]2)cc1F (single isomer, unassigned) [Compound 99] | – | – | CC50 (TZM-bl cells): 38.8 ± 0.8 µM; IC50 ([3]; Human immunodeficiency virus 1, TZM-bl, read-out: IC50 (μM) ± S.D., subtype A, ENV KNH1144): 1.1 ± 0.2 µM; IC50 ([3]; subtype A, ENV BG505-T332N, read-out: IC50 (μM) ± S.D.): 0.99 ± 0.1 µM
38 | Cc1nc(C(NC(=O)c2ccc(-c3ccc(Cl)cc3)[nH]2)C2CCCCN2)sc1CCO (single isomer, unassigned) [Compound 28] | 17.3 ± 0.1 µM | – | –
